Results on one substance are retold here after patent US5770688A, “Method and composition for the treatment of mammalian HIV infection” (GSF-Forschungszentrum fur Umwelt und Gesundheit GmbH, priority 1989, dated 1998).

Test [1] deals with feline immunodeficiency virus (FIV). Description: Example 3: FIV replication in naturally infected cats, quantitative FIV-PCR. The class given is in vivo. Here is the method:
To further investigate the effects of melittin (Seq. ID NO:1) on virus replication in retroviral infected cells or the inhibition of retroviral infected cell growth, a series of experiments were conducted utilizing cats which were naturally infected with the feline immunodeficiency virus (FIV). FIV is in its genomic and viral structure, in many respects, very similar to the human immunodeficiency virus (HIV). Therefore, it is widely regarded as similar to HIV, that is, it is a member of the Lentivirus subfamily, of the retrovirus family. Further, it has been determined that experimentally and naturally infected cats having FIV, display very similar disease characteristics such as immunedysfunction or other neurological disorders which can be taken as a relevant model for HIV infection in humans. This is discussed in greater detail in the article authored by Egberink et. al. "Suppression of feline immuno-deficiency virus infection in vivo by 9-(2-phosphonomethoxyethyl)adenine," Proc. Natl. Acad. Sci. 87, 3087-3091 (1990).
In the following series of experiments, two naturally FIV infected cats (M and G) were used. These particular cats were kept for more than one year under constant observation in the Clinic for Internal Medicine at the Veterinary School in Munich, Germany before the onset of melittin (Seq. ID NO:1) treatment. In each cat, FIV infection had been confirmed by detecting an antibody ELISA. In this regard, a test marketed under the tradename PetChek® and which is available from the same company in Portland, Maine was employed. As best seen in FIG. 53. The antibody titer against FIV in both cats was approximately 1:50. As a general matter, the overall physical condition of both cats was good during the observation period. Further and during the experiment, cat M developed shortly before melittin treatment a pneumonitis which was not treated in a conventional fashion. The individual body weights of each cat at the beginning of melittin treatment was 4 kilograms and 2.2 kilograms for cats M and G, respectively.
During the experiment it was determined that detectable blood serum levels of melittin (Seq. ID NO:1) of about 5 ng/ml could be detected following an injection of melittin equal to […] a few minutes after injection. […] In vitro data has shown that melittin, after this time interval, is found within the cells where it can be detected in tact for more than 48 hours. The LD50 (lethal dose where 50% of the animals perish) for melittin is not known for cats. […] The quantitative effect of melittin on FIV replication was determined quantitatively by utilizing FIV-PCR employing nested primers from the gag region. Quantification was based upon the determination of amplified product in identical samples which have been amplified after different cycle times. […]

Test [2] concerns HIV-infected LC5 cells. The test can be described thus: MTT toxicity/killing of HIV infected cells (Biomek 1000). The class given is cell-based, human. Here is the method: The KE37-1 (uninfected) and KE37-1/111β (infected) cell lines discussed below are commercially available from the Dr. Robert Gallows Laboratory of the NIH in the United States of America and grown in a medium of RPMI 1640 (GIBCO) and further supplemented with 10% fetal calf serum which contained approximately 100 units of penicillin, 100 μg streptomycin, and approximately 0.25 μg fungizone (Amphotericin B) per milliliter. The human mesenchymal cell lines LC5 and LC5-HIV, discussed below, are deposited with the Collection De L'Institut Pasteur of Paris, France on Mar. 9, 1989 and given the accession numbers I-842 and I-843, respectively. The LC5 and LC5-HIV cell lines were grown in a medium of RPMI 1640 and supplemented with 10% fetal calf serum.
A series of experiments and which are illustrated graphically in FIGS. 6 through 34, respectively, were designed to detect two extremes. In particular the tests were designed to detect the inhibition of viral release and/or the release of virus which has a reduced ability to infect other cells. This reduced ability to infect other cells is represented, for example, by glycosylation inhibitors, the direct effect on virus release is represented by acylation inhibitors, RT inhibitors and melittin (Seq. ID NO:1). The most important feature of this experimental design, however, is to detect the toxicity of melittin. The present experiments were carried out on both the astrocytoma cell line LC5-HIV (cloned infected cells) and T-lymphocytoma cell line KE37-1/IIIβ (cloned infected cells with HTLV-IIIβ). In both cases the results were essentially identical.
In the present series of experiments HIV release was tested by a fully automated laboratory robot system and which is manufactured by Beckman Instruments as the Biomek 1000. This system performed the following steps. First, chronically infected cells (cloned) are plated in microtiter plates and grown for a period of seven days. They are then challenged by melittin (Seq. ID NO:1) during this period either for the final day or throughout the period as shown in the figures. The number of living cells are quantified by MTT, that is by a metabolic (dehydrogenase) test. The MTT test is automatically performed. The toxic effect is detected at the time of the experiment and not in a separate control experiment. Furthermore, the supernatant, and which contains released virus cells from the period of time which elapsed from the last wash, and which may vary from 24 hours to 7 days, is collected from the culture, and an aliquot is saved for virus quantification by employing antigen or viral enzyme reverse transcriptase (RT). Furthermore, an aliquot is added to a culture of uninfected cells in microtiter plates for subsequent measurement of the ability of the virus cells to reinfect these uninfected cells. In this regard, the number of infected cells is automatically quantified by an immunoperoxidase staining technique. The test results, as shown, are expressed in terms of toxicity of the melittin (MTT test); the release of HIV from the primary culture (RT test); and the ability of the released virus to infect previously uninfected cells.

“Gly-Ile-Gly-Ala-Val-Leu-Lys-Val-Leu-Thr-Thr-Gly-Leu-Pro-Ala-Leu-Ile-Ser-Trp-Ile-Lys-Arg-Lys-Arg-Gln-Gln-Amide [melittin]”: the “reduction in virus load” value in test [1] (FIV model, summary) was 50%. For the same substance, in test [1] (cat G, day 42 and following days), the “amplification of FIV specific sequences, in words” value was “a reduced amplification could already be seen in the sample from day 42 and the following days”. Moreover, in test [1] (cat M, days 56 and 116), the “amplification of FIV specific sequences, late samples, in words” value is listed as “reduced amplification” and the “reduction of the virus load” value is no less than 50%. Moreover, in test [2], the “killing concentration compared with concentration for effect on HIV release” value is reported as “ten times higher than the effect on HIV release” and the “lysis of HIV-infected LC5 cells” value is on record as “able to lyse HIV-infected LC5 cells”. Moreover, the “selectivity for infected cells, in words” value in test [2] (FIGS. 6-19) was “appears to not selectively affect the infected cells”. Also, in test [2] (infected), the “critical concentration at which all infected cells were killed” value came to 10 μg per ml.
